Experimental data taken from ChEMBL document CHEMBL6115057, “Discovery and Optimization of a Covalent AKR1C3 Inhibitor” (J Med Chem, 2025).
Where a chain is given by its changes, count along the chain named. Active and inactive are the calls of the source. The calls are words filed in the database; no cut-off is given here.

What was measured:
[1] = biological target: T1, Aldo-keto reductase family 1 member C3 (Homo sapiens, UniProt P42330); assay: Inhibition of AKR1C3 in human COLO 205 cells by Cell based AKR activity assay
T1 sequence (P42330 whole entry): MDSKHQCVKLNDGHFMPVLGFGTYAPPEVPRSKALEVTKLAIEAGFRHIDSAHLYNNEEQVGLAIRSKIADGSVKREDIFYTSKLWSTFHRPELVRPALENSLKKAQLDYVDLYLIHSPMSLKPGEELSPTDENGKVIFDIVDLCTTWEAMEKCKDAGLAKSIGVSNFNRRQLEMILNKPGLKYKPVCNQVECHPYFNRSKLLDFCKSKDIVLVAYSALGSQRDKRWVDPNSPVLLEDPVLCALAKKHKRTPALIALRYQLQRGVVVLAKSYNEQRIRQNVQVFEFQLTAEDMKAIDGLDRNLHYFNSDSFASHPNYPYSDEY

[2] = biological target: T2, Aldo-keto reductase family 1 member C3 (Homo sapiens) (UniProt P42330); assay: Binding affinity to AKR1C3 in human COLO 205 cells assessed as interaction at Y24/Y55 at 100 uM measured after 4 hrs; type: cell-based
T2 sequence (whole entry): T1 sequence (P42330 whole entry)

[3] = biological target: T3, Aldo-keto reductase family 1 member C2 (Homo sapiens) (UniProt P52895); assay: Binding affinity to AKR1C2 in human COLO 205 cells assessed as interaction at Y55 at 100 uM measured after 4 hrs; type: cell-based
T3 sequence (whole entry): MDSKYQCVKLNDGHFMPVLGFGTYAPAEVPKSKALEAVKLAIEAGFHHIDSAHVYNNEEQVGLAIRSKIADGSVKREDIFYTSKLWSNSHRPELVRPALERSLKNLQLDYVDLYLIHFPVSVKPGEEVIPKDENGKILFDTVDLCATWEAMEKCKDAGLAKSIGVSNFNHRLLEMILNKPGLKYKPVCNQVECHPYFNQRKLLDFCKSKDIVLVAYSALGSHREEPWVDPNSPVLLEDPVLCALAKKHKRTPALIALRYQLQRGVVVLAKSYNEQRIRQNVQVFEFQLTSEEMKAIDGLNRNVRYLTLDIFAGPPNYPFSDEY

[4] = biological target: T4, Aldo-keto reductase family 1 member C1 (Homo sapiens) (UniProt Q04828); assay: Binding affinity to AKR1C1 in human COLO 205 cells assessed as interaction at Y55 at 100 uM measured after 4 hrs; type: cell-based
T4 sequence (whole entry): T3 sequence (whole entry) with V38T, H47R, V54L, S87C, M151V, H170R, L172Q

[5] = biological target: T2, Aldo-keto reductase family 1 member C3 (Homo sapiens); assay: Inhibition of RJG-2121 probe labelling of AKR1C3 in human COLO 205 cells in presence of CuAAC Gel-Based (competitive ABPP) Chemical Proteomics Assay; type: cell-based
[6] = organism: Homo sapiens; assay: Selectivity ratio, ratio of IC50 for AKR1C2 (unknown origin) to AKR1C3 (unknown origin)
[7] = biological target: T4, Aldo-keto reductase family 1 member C1 (Homo sapiens); assay: Inhibition of RJG-2121 probe labelling of AKR1C1 (unknown origin) expressed in human HEK293T cells in presence of CuAAC measured by Gel-Based (competitive ABPP) Chemical Proteomics Assay; type: cell-based; details: time 5-120 min
[8] = biological target: T2, Aldo-keto reductase family 1 member C3 (Homo sapiens); assay: Inhibition of TMT-SuTex labelling of AKR1C3 in human live COLO 205 cells assessed as competition ratio at 10 uM measured after 2 hrs relative to control; type: cell-based
[9] = biological target: T4, Aldo-keto reductase family 1 member C1 (Homo sapiens); assay: Binding affinity to AKR1C1 in human live COLO 205 cells assessed as interaction at Y24/T126 by measuring competition ratio at 10 uM measured after 2 hrs relative to control; type: cell-based
[10] = biological target: T2, Aldo-keto reductase family 1 member C3 (Homo sapiens); assay: Binding affinity to AKR1C3 in human live COLO 205 cells assessed as interaction at Y272 by measuring competition ratio at 10 uM measured after 2 hrs relative to control; type: cell-based
[11] = organism: Homo sapiens; assay: Selectivity ratio, ratio of IC50 for AKR1C4 (unknown origin) to AKR1C3 (unknown origin)
[12] = biological target: T5, Aldo-keto reductase family 1 member C1 (Homo sapiens, UniProt Q04828); assay: Inhibition of AKR1C1 (unknown origin) in human HEK293T cells assessed as turnover of coumberone to coumberol by live cell coumberone reduction assay; type: cell-based
T5 sequence (Q04828 whole entry): T3 sequence (whole entry) with V38T, H47R, V54L, S87C, M151V, H170R, L172Q

[13] = biological target: Aldo-keto reductase family 1 member B10 (Homo sapiens) (UniProt O60218); assay: Binding affinity to AKR1B10 in human live COLO 205 cells assessed as interaction at Y49 by measuring competition ratio at 10 uM measured after 2 hrs relative to control; type: cell-based
[14] = biological target: T6, Aldo-keto reductase family 1 member C2 (Homo sapiens, UniProt P52895); assay: Inhibition of AKR1C2 (unknown origin) in human HEK293T cells assessed as turnover of coumberone to coumberol by live cell coumberone reduction assay; type: cell-based
T6 sequence (P52895 whole entry): T3 sequence (whole entry)

[15] = organism: Homo sapiens; assay: Selectivity ratio, ratio of IC50 for AKR1C1 (unknown origin) to AKR1C3 (unknown origin)
[16] = biological target: T7, Aldo-keto reductase family 1 member C4 (Homo sapiens, UniProt P17516); assay: Inhibition of AKR1C4 (unknown origin) in human HEK293T cells assessed as turnover of coumberone to coumberol by live cell coumberone reduction assay; type: cell-based
T7 sequence (P17516 whole entry): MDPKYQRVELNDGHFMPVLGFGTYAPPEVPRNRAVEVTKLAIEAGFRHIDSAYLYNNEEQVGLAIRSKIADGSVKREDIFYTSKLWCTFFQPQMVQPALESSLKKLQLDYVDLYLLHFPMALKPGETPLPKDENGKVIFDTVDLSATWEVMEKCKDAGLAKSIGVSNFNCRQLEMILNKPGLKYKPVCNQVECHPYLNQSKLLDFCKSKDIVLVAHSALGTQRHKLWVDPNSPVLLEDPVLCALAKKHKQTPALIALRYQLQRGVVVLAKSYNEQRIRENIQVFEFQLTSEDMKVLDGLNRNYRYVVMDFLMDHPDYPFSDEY

[17] = biological target: T2, Aldo-keto reductase family 1 member C3 (Homo sapiens); assay: Binding affinity to AKR1C3 in human live COLO 205 cells assessed as interaction at Y24 at 10 uM measured after 2 hrs; type: cell-based
[18] = biological target: T2, Aldo-keto reductase family 1 member C3 (Homo sapiens); assay: Inhibition of TMT-SuTex labelling of AKR1C3 in human live COLO 205 cells assessed as blockade of probe labelling at 10 uM measured after 2 hrs relative to control; type: cell-based
[19] = biological target: T4, Aldo-keto reductase family 1 member C1 (Homo sapiens); assay: Inhibition of RJG-2121 probe labelling of AKR1C1 (unknown origin) expressed in human HEK293T cells in presence of CuAAC measured after 5 to 120 mins by Gel-Based (competitive ABPP) Chemical Proteomics Assay; type: cell-based; details: time 5-120 min
[20] = biological target: T3, Aldo-keto reductase family 1 member C2 (Homo sapiens); assay: Inhibition of RJG-2121 probe labelling of AKR1C2 (unknown origin) expressed in human HEK293T cells in presence of CuAAC measured after 5 to 120 mins by Gel-Based (competitive ABPP) Chemical Proteomics Assay; type: cell-based; details: time 5-120 min
[21] = system: HEK293T; assay: Inhibition of RJG-2121 probe labelling of AKR1C4 (unknown origin) expressed in human HEK293T cells in presence of CuAAC measured after 5 to 120 mins by Gel-Based (competitive ABPP) Chemical Proteomics Assay; type: cell-based; details: time 5-120 min
[22] = biological target: T2, Aldo-keto reductase family 1 member C3 (Homo sapiens); assay: Inhibition of RJG-2121 probe labelling of AKR1C3 (unknown origin) expressed in human HEK293T cells in presence of CuAAC measured after 5 to 120 mins by Gel-Based (competitive ABPP) Chemical Proteomics Assay; type: cell-based; details: time 5-120 min

Sequence of Aldo-keto reductase family 1 member B10 (Homo sapiens) (O60218 whole entry, looked up): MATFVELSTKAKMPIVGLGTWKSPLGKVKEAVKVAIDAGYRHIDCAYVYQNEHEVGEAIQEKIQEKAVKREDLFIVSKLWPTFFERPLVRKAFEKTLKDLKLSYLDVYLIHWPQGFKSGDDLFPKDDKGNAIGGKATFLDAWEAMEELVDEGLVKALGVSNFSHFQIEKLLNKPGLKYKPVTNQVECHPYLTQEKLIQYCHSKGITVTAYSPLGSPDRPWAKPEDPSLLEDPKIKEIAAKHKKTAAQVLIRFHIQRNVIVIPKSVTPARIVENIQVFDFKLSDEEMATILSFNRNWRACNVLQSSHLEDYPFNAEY

SMILES	IC50 [1] [nM]	further results
COc1ccccc1N1CCN(C(=O)c2ccc(S(=O)(=O)n3cnc(-c4cccc(F)c4)n3)cc2)CC1	620	–
NS(=O)(=O)c1ccc(-n2nc(CCCNC(=O)Nc3ccc(C(F)(F)F)cc3)cc2-c2ccccc2)cc1	> 10000	–
C#CCNC(=O)c1ccc(S(=O)(=O)n2cnc(C3CC3)n2)cc1	–	Activity [2]: Active
COc1ccccc1N1CCN(C(=O)c2ccc(S(=O)(=O)n3cnc(-c4ccc(F)cc4)n3)cc2)CC1	510	–
C#CCN(C)C(=O)c1ccc(S(=O)(=O)n2cncn2)cc1	–	Activity [3]: Active; Activity [4]: Active
COc1ccccc1N1CCN(C(=O)c2ccc(S(=O)(=O)n3cnc(-c4ccccc4F)n3)cc2)CC1	4700	–
COc1ccccc1N1CCN(C(=O)c2ccc(S(=O)(=O)n3cnc(C4CCCC4)n3)cc2)CC1	41	–
COc1ccccc1N1CCN(C(=O)c2ccc(S(=O)(=O)n3cncn3)cc2)CC1	2400	–
O=C(c1ccc(S(=O)(=O)n2cncn2)cc1)N1CCN(c2ccccn2)CC1	2600	–
COc1ccccc1-c1ccc(NC(=O)c2ccc(S(=O)(=O)n3cncn3)cc2)cc1	8700	–
O=C(Nc1ccc(-c2ccccn2)cc1)c1ccc(S(=O)(=O)n2cncn2)cc1	> 10000	–
COc1ccccc1N1CCN(C(=O)c2ccc(S(=O)(=O)n3cnc(-c4ccc(C(F)(F)F)cc4)n3)cc2)CC1	930	–
COc1ccccc1N1CCN(C(=O)c2ccc(S(=O)(=O)n3cnc(-c4ccccc4)n3)cc2)CC1	2700	–
COc1ccccc1N1CCN(C(=O)c2cccc(S(=O)(=O)n3cnc(C4CC4)n3)c2)CC1	9200	–
COc1ccccc1N1CCN(C(=O)c2cccc(S(=O)(=O)n3cnc(C4CCCCC4)n3)c2)CC1	> 10000	–
COc1ccccc1N1CCN(C(=O)c2ccc(S(=O)(=O)n3cnc(-c4ccncc4)n3)cc2)CC1	4200	–
COc1ccccc1N1CCN(C(=O)c2ccc(S(=O)(=O)n3cnc(-c4ccc(OC(F)(F)F)cc4)n3)cc2)CC1	1100	–
O=C(c1ccc(S(=O)(=O)n2cncn2)cc1)N1CCN(c2ccc(I)cc2)CC1	330	–

SMILES	IC50 [1] [nM]	further results
C#CCNC(=O)c1ccc(S(=O)(=O)n2cnc(C3CCCCC3)n2)cc1	–	Activity [2]: Active
COc1cccc(N2CCN(C(=O)c3ccc(S(=O)(=O)n4cncn4)cc3)CC2)c1	540	–
COc1ccccc1N1CCN(C(=O)c2cccc(S(=O)(=O)n3cnc(-c4cccnc4)n3)c2)CC1	> 10000	–
COc1ccccc1N1CCN(C(=O)c2ccc(S(=O)(=O)n3cnc(C4CCC4)n3)cc2)CC1	62	–
COc1ccccc1N1CCN(C(=O)c2ccc(S(=O)(=O)n3cnc(C4CCCCC4)n3)cc2)CC1	27	inhibition [5]: Dose-dependent-effect; Ratio IC50 [6]: 1770; inhibition [7]: Time-dependent-effect; Ratio [8]: 0.25; Ratio [9]: 1; Ratio [10]: 1; Ratio IC50 [11]: 461; IC50 [12]: 31000 nM; Ratio [13]: 1; IC50 [14]: 23000 nM; Ratio IC50 [15]: 2380; IC50 [16]: 6000 nM; Activity [17]: Active; inhibition [18]: > 75%
COc1ccccc1NC1CCN(C(=O)c2ccc(S(=O)(=O)n3cncn3)cc2)CC1	4700	–
O=C(Nc1ccc(-c2ccccc2OC(F)(F)F)cc1)c1ccc(S(=O)(=O)n2cncn2)cc1	> 10000	–
COc1ccc(-c2ncn(S(=O)(=O)c3ccc(C(=O)N4CCN(c5ccccc5OC)CC4)cc3)n2)cc1	500	–
C#CCN(C)C(=O)c1cccc(S(=O)(=O)n2cnc(C3CC3)n2)c1	–	Activity [3]: Active; Activity [4]: Active
C#CCNC(=O)c1cccc(S(=O)(=O)n2cncn2)c1	–	Activity [2]: Active
COc1ccccc1N1CCN(C(=O)c2ccc(S(=O)(=O)n3cnc(-c4cccnc4)n3)cc2)CC1	7100	–
COc1ccccc1N1CCN(C(=O)c2ccc(S(=O)(=O)n3cnc(C4CC4)n3)cc2)CC1	87	–
COc1ccccc1N1CCN(C(=O)c2ccc(S(=O)(=O)n3cnc(-c4ccc(Br)cc4)n3)cc2)CC1	980	–
COc1ccc(N2CCN(C(=O)c3ccc(S(=O)(=O)n4cncn4)cc3)CC2)cc1	950	–
COc1ccccc1N1CCN(C(=O)c2cccc(S(=O)(=O)n3cncn3)c2)CC1	> 10000	Activity [5]: inactive; inhibition [19]: inactive; inhibition [20]: inactive; inhibition [21]: inactive; inhibition [22]: inactive
COc1ccccc1N1CCN(C(=O)c2ccc(S(=O)(=O)n3cnc(-c4ccco4)n3)cc2)CC1	5000	–
COc1ccccc1N1CCN(C(=O)c2ccc(S(=O)(=O)n3cnc(-c4ccc(-c5ccccc5)cc4)n3)cc2)CC1	> 10000	–
C#CCN(C)C(=O)c1ccc(S(=O)(=O)n2cnc(C3CC3)n2)cc1	–	Activity [2]: Active
